Consider four molecules from patent US5747523A, “Substituted ethyl α,α-diarylmethyl ether derivatives” (Guilford Pharmaceuticals Inc., priority 1996, dated 1998).

The target in assay [1] is T1, human dopamine transporter (Homo sapiens, UniProt Q01959).
T1 construct: expressed in transfected cells
The assay is described as follows: [3H]dopamine uptake inhibition in hDAT cells. The class given is cell-based. The note with it: hDAT CHO cells; 100 nM [3H]dopamine; 2 h pre-incubation at 37° C., 6 min at room temperature; read-out: Effect on Dopamine Uptake (Kiuptake).

Assay [2] concerns the target T2, cocaine binding site of the human dopamine transporter (Homo sapiens, UniProt Q01959).
T2 construct: expressed in transfected cells
The assay is described as follows: [3H]CFT binding (cocaine analogue displacement at the cocaine site of DAT). The conditions noted are these: hDAT CHO cells; 5 nM [3H]CFT; 2 h pre-incubation at 37° C., 6 min at room temperature.

In assay [3] the target is T1, human dopamine transporter. Briefly: uptake to binding ratio (Kiuptake/Kibinding). The note with it: hdat cho cells. The procedure: The experimental procedures for the assay of compounds are as follows.
All assays were performed using Chinese Hamster Ovary cells stably expressing the human dopamine transporter cDNA (HDAT cells). hDAT cells were distributed in 96-well plates and grown 3 to 4 days to confluency (~10^5 cells/well) in Ham's F12 medium containing 10% fetal calf serum.

In assay [4] the test system is MPTP induced toxicity. The note with it: mice; literature; cited from earlier work.
Assay [5] has as its system mesolimbic dopamine neurons. The note with it: rat; literature; cited from earlier work.

T1 sequence (Q01959 whole entry): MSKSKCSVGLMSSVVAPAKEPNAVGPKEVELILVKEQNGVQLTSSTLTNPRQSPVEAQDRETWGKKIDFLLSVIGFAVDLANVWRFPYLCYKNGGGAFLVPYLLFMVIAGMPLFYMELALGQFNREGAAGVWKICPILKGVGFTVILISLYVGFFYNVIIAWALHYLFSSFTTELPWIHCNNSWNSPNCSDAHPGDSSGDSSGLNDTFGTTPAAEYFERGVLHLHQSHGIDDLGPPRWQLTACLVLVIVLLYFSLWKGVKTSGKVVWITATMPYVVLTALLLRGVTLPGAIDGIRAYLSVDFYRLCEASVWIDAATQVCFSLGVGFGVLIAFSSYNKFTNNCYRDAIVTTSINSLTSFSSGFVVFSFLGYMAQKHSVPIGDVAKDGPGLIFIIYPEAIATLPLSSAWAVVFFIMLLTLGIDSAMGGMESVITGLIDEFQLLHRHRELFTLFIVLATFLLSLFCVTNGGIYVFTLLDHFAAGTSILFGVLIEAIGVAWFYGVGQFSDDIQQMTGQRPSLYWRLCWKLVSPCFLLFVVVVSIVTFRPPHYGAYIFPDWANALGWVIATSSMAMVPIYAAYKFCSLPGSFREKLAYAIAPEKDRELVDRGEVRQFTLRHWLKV
T2 sequence (Q01959 whole entry): as above

As to `Fc1ccc(C(OCCN2CCCCC2)c2ccc(F)cc2)cc1` [1-[2-[Bis(4-fluorophenyl)methoxy]ethyl]piperidine], the Ki in assay [1] came to 609 nM; in assay [2], 211 nM. The “Uptake to Binding Ratio (Kiuptake/Kibinding)” value in assay [3] turned out to be 2.896.

As for `Fc1ccc(C(OCCN2CCCC2)c2ccc(F)cc2)cc1` [1-[2-[Bis(4-fluorophenyl)methoxy]ethyl]pyrrolidine], the values for the Ki in assay [1] and in assay [2] were 947 nM and 361 nM, respectively. The “Uptake to Binding Ratio (Kiuptake/Kibinding)” value in assay [3] was found to be 2.623.

As for `CS(=O)(=O)O.CS(=O)(=O)O.Fc1ccc(CCCN2CCN(CCOC(c3ccc(F)cc3)c3ccc(F)cc3)CC2)cc1` [GBR 13,098], the “preventing MPTP induced toxicity” value in assay [4] is given as “effective at preventing MPTP induced toxicity”.

Regarding `Fc1ccc(C(OCCN2CCN(CCCc3ccccc3)CC2)c2ccc(F)cc2)cc1` [GBR 12909], the “attenuation of cocaine-induced activation of mesolimbic dopamine neurons” value in assay [5] was “attenuate cocaine-induced activation of mesolimbic dopamine neurons”.
